pIC50: −log10 of the molar value. Read-outs that look alike come from different tables or passages of the source. Numbered stars: 1 amine (or outer) side, 2 acyl side, 3 side chain; on linkers, the order of the positions; unused ones are H or OH. Bridge positions count the residues as written; N and C are the ends. Square brackets hold non-standard residues; d marks the D form. Peptide text beside a SMILES is read from it. * marks the point of attachment. Tartaroyl(2R,3R-(OAc)2) = CC(=O)O[C@@H](C(=O)[*:1])[C@@H](OC(C)=O)C(=O)[*:2]; Phe(4-NO2) = N[C@@H](Cc1ccc([N+](=O)[O-])cc1)C(=O)O; Phe(4-CF3) = N[C@@H](Cc1ccc(C(F)(F)F)cc1)C(=O)O; Phe(4-tBu) = CC(C)(C)c1ccc(C[C@H](N)C(=O)O)cc1; dPhe(3-CN) = N#Cc1cccc(C[C@@H](N)C(=O)O)c1; Bip = N[C@@H](Cc1ccc(-c2ccccc2)cc1)C(=O)O; dBip = N[C@H](Cc1ccc(-c2ccccc2)cc1)C(=O)O; dPhe(4-NH2) = Nc1ccc(C[C@@H](N)C(=O)O)cc1; Phe(4-NH2) = Nc1ccc(C[C@H](N)C(=O)O)cc1; d2Nal = N[C@H](Cc1ccc2ccccc2c1)C(=O)O; dIgl = N[C@@H](C(=O)O)C1Cc2ccccc2C1; d(hPhe) = N[C@H](CCc1ccccc1)C(=O)O; mTyr = N[C@@H](Cc1cccc(O)c1)C(=O)O; hPhe = N[C@@H](CCc1ccccc1)C(=O)O; 2Thi = N[C@@H](Cc1cccs1)C(=O)O; d2Thi = N[C@H](Cc1cccs1)C(=O)O; d3Thi = N[C@H](Cc1ccsc1)C(=O)O; dPhg = N[C@@H](C(=O)O)c1ccccc1; NH(CH2)2O(CH2)2NH2 = NCCOCCN*; Suc = O=C(CCC(=O)[*:2])[*:1]; Nphe = O=C(O)CNCc1ccccc1
Target: T1, TNFα / TNFα receptor (TNFα R1/Fc) (Homo sapiens, UniProt P01375)
T1 construct: purchased R&D Systems
T1 sequence (P01375 77-233 limits assumed, species assumed): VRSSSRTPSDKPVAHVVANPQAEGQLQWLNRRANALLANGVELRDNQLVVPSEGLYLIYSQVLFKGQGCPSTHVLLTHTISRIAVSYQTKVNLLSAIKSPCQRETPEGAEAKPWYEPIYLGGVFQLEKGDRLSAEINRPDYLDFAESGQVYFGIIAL
Assay: Inhibition of binding of TNFα to the TNFα receptor (plate ELISA competition)
Settings: Table 2
In short: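 Plates were coated with TNFα at 15 nM. Test compound and 8.33 nM receptor-Fc (PBST, 2% DMSO) were first mixed in solution for 30 min at room temperature, then transferred to the plates for another 30 min. Competition was read by absorbance at 450 nm after HRP anti-human IgG Fc detection with TMB.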

[1] = read-out: Activity (IC50, inhibition of TNFα binding to TNFα R1/Fc)

Compound | pIC50 [1] | pIC50 (Activity (IC50, inhibition of TNFα binding to TNFα R1/Fc))
O=C1CCC(=O)N[C@H](Cc2cccs2)C(=O)N[C@@H](Cc2cccc(O)c2)C(=O)N[C@H](Cc2ccccc2)C(=O)N[C@H](C(=O)O)Cc2ccc(cc2)N1 [Compound 102] ([d2Thi][mTyr][dF][Phe(4-NH2)]-OH; linker N-4 via Suc) | < 4.00 | –
C[C@@H](NC(=O)[C@@H]1Cc2ccc(cc2)NC(=O)CCC(=O)N[C@H](Cc2cccs2)C(=O)N[C@@H](Cc2ccc(-c3ccccc3)cc2)C(=O)N[C@H](CCc2ccccc2)C(=O)N1)C(=O)O [Compound 446] ([d2Thi][Bip][d(hPhe)][Phe(4-NH2)][dA]-OH; linker N-4 via Suc) | < 4.00 | –
O=C(O)[C@H]1Cc2ccc(cc2)NC(=O)[C@H](O)[C@@H](O)C(=O)N[C@H](Cc2cccs2)C(=O)N[C@H](Cc2ccc(-c3ccccc3)cc2)C(=O)N[C@H](Cc2ccccc2)C(=O)N1 [Compound 276] | < 4.00 | –
N#Cc1cccc(C[C@H]2NC(=O)CCC(=O)Nc3ccc(cc3)C[C@@H](C(=O)O)NC(=O)[C@@H](Cc3ccccc3)NC(=O)[C@H](Cc3ccc(C(F)(F)F)cc3)NC2=O)c1 [Compound 130] ([dPhe(3-CN)][Phe(4-CF3)][dF][Phe(4-NH2)]-OH; linker N-4 via Suc) | 4.52 to 5.00 | –
O=C(O)[C@@H]1Cc2ccc(cc2)NC(=O)[C@H](O)[C@@H](O)C(=O)N[C@H](Cc2cccs2)C(=O)N[C@@H](Cc2ccc(C(F)(F)F)cc2)C(=O)N[C@H](Cc2ccccc2)C(=O)N1 [Compound 178] | < 4.00 | –
O=C1COc2ccc(cc2)C[C@@H](C(=O)O)NC(=O)[C@@H](CCc2ccccc2)NC(=O)[C@H](Cc2ccc([N+](=O)[O-])cc2)NC(=O)[C@@H](Cc2cccs2)N1 [Compound 541] | < 4.00 | –
O=C1CCC(=O)N[C@H](Cc2ccsc2)C(=O)N[C@@H](Cc2ccc(-c3ccccc3)cc2)C(=O)N[C@H](Cc2ccccc2)C(=O)N[C@H](C(=O)O)Cc2ccc(cc2)N1 [Compound 122] ([d3Thi][Bip][dF][Phe(4-NH2)]-OH; linker N-4 via Suc) | 4.00 to 4.52 | –
O=C1CCC(=O)N[C@H](Cc2cccs2)C(=O)N[C@@H](Cc2ccc(-c3ccccc3)cc2)C(=O)N[C@@H](Cc2ccccc2)C(=O)N[C@H](C(=O)O)Cc2ccc(cc2)N1 [Compound 195] ([d2Thi][Bip]F[Phe(4-NH2)]-OH; linker N-4 via Suc) | < 4.00 | –
O=C1CCC(=O)N[C@H](CCc2ccccc2)C(=O)N[C@@H](Cc2ccc(-c3cccc(F)c3)cc2)C(=O)N[C@H](Cc2ccccc2)C(=O)N[C@H](C(=O)O)Cc2ccc(cc2)N1 [Compound 181] | 4.52 to 5.00 | –
O=C1CCC(=O)N[C@H](c2ccccc2)C(=O)N[C@@H](Cc2ccc(-c3ccccc3)cc2)C(=O)N[C@H](Cc2ccccc2)C(=O)N[C@H](C(=O)O)Cc2ccc(cc2)N1 [Compound 120] ([dPhg][Bip][dF][Phe(4-NH2)]-OH; linker N-4 via Suc) | < 4.00 | –
O=C(O)CC[C@@H]1NC(=O)[C@H](Cc2ccc(-c3ccccc3)cc2)NC(=O)[C@@H](Cc2cccs2)NC(=O)CCC(=O)Nc2ccc(cc2)C[C@@H](C(=O)O)NC1=O [Compound 68] ([d2Thi][Bip]E[Phe(4-NH2)]-OH; linker N-4 via Suc) | < 4.00 | –
O=C1COc2ccc(cc2)C[C@@H](C(=O)O)NC(=O)[C@H](CCc2ccccc2)NC(=O)[C@@H](Cc2ccc(-c3ccccc3)cc2)NC(=O)[C@H](Cc2ccc(-c3ccccc3)cc2)N1 [Compound 510] | > 5.00 | –
CC(=O)O[C@H]1C(=O)Nc2ccc(cc2)C[C@@H](C(=O)N[C@@H](Cc2ccccc2)C(=O)O)NC(=O)[C@H](Cc2ccccc2)NC(=O)[C@@H](Cc2ccc(-c3ccccc3)cc2)NC(=O)[C@H](Cc2cccs2)NC(=O)[C@@H]1OC(C)=O [Compound 414] ([2Thi][dBip]F[Phe(4-NH2)]F-OH; linker N-4 via Tartaroyl(2R,3R-(OAc)2)) | < 4.00 | –
NCCCC[C@H](NC(=O)[C@@H]1Cc2ccc(cc2)NC(=O)[C@H](O)[C@@H](O)C(=O)N[C@H](Cc2cccs2)C(=O)N[C@@H](Cc2ccc(-c3ccccc3)cc2)C(=O)N[C@H](Cc2ccccc2)C(=O)N1)C(=O)O [Compound 360] | < 4.00 | –
O=C1CCC(=O)N[C@H](Cc2ccc3ccccc3c2)C(=O)N[C@@H](Cc2ccc(C(F)(F)F)cc2)C(=O)N[C@H](Cc2ccccc2)C(=O)N[C@H](C(=O)O)Cc2ccc(cc2)N1 [Compound 143] ([d2Nal][Phe(4-CF3)][dF][Phe(4-NH2)]-OH; linker N-4 via Suc) | < 4.00 | –
O=C(O)CCCNC(=O)[C@@H]1Cc2ccc(cc2)OCC(=O)N[C@@H](Cc2ccncc2)C(=O)N[C@H](Cc2ccc(-c3ccccc3)cc2)C(=O)N[C@@H](Cc2ccccc2F)C(=O)N1 [Compound 719] | > 5.00 | –
NCCOCCNC(=O)[C@@H]1Cc2ccc(cc2)NC(=O)CCC(=O)N[C@H](Cc2cccs2)C(=O)N[C@@H](Cc2ccc(-c3ccccc3)cc2)C(=O)N[C@H](Cc2ccccc2)C(=O)N1 [Compound 193] ([d2Thi][Bip][dF][Phe(4-NH2)]-{NH(CH2)2O(CH2)2NH2}; linker N-4 via Suc) | > 5.00 | –
O=C1COc2ccc(cc2)C[C@@H](C(=O)O)NC(=O)[C@H](Cc2cccc(F)c2)NC(=O)[C@@H](Cc2ccc(-c3ccccc3)cc2)NC(=O)[C@H](Cc2cccs2)N1 [Compound 626] | < 4.00 | –

Compound | pIC50 [1] | pIC50 (Activity (IC50, inhibition of TNFα binding to TNFα R1/Fc))
N#Cc1cccc(C[C@H]2NC(=O)[C@H](O)[C@@H](O)C(=O)Nc3ccc(cc3)C[C@@H](C(=O)O)NC(=O)[C@@H](Cc3ccccc3)NC(=O)[C@H](Cc3ccc(-c4ccccc4)cc3)NC2=O)c1 [Compound 316] | 4.52 to 5.00 | –
O=C1COc2ccc(cc2)C[C@@H](C(=O)O)NC(=O)[C@H](Cc2ccccc2)NC(=O)[C@@H](Cc2ccc(-c3ccccc3)cc2)NC(=O)[C@H](Cc2cccs2)N1 [Compound 214] | > 5.00 | –
O=C1CCC(=O)N[C@@H](Cc2cccs2)C(=O)N[C@H](Cc2ccc(-c3ccccc3)cc2)C(=O)N[C@H](Cc2ccccc2)C(=O)N[C@@H](C(=O)O)Cc2ccc(cc2)N1 [Compound 501] ([2Thi][dBip][dF][dPhe(4-NH2)]-OH; linker N-4 via Suc) | < 4.00 | –
O=C1CCC(=O)N[C@H](Cc2cccs2)C(=O)N[C@@H](Cc2ccc(-c3ccccc3)cc2)C(=O)N[C@H](CO)C(=O)N[C@H](C(=O)O)Cc2ccc(cc2)N1 [Compound 61] ([d2Thi][Bip][dS][Phe(4-NH2)]-OH; linker N-4 via Suc) | < 4.00 | –
CC(C)(C)c1ccc(C[C@@H]2NC(=O)[C@@H](Cc3cccs3)NC(=O)CCC(=O)Nc3ccc(cc3)C[C@@H](C(=O)O)NC(=O)[C@@H](Cc3ccccc3)NC2=O)cc1 [Compound 90] ([d2Thi][Phe(4-tBu)][dF][Phe(4-NH2)]-OH; linker N-4 via Suc) | < 4.00 | –
O=C1COc2ccc(cc2)C[C@H](C(=O)O)NC(=O)[C@H](CCc2ccccc2)NC(=O)[C@@H](Cc2ccc(-c3ccccc3)cc2)NC(=O)[C@H](Cc2cccs2)N1 [Compound 673] | > 5.00 | –
O=C1CCC(=O)N[C@H](C2Cc3ccccc3C2)C(=O)N[C@@H](Cc2ccc(C(F)(F)F)cc2)C(=O)N[C@H](Cc2ccccc2)C(=O)N[C@H](C(=O)O)Cc2ccc(cc2)N1 [Compound 165] ([dIgl][Phe(4-CF3)][dF][Phe(4-NH2)]-OH; linker N-4 via Suc) | < 4.00 | –
O=C1CCC(=O)N[C@H](Cc2cccs2)C(=O)N(Cc2ccccc2)CC(=O)N[C@H](Cc2ccccc2)C(=O)N[C@H](C(=O)O)Cc2ccc(cc2)N1 [Compound 101] ([d2Thi][Nphe][dF][Phe(4-NH2)]-OH; linker N-4 via Suc) | < 4.00 | –
O=C1COc2ccc(cc2)C[C@@H](C(=O)NS(=O)(=O)c2ccccc2)NC(=O)[C@H](CCc2ccccc2)NC(=O)[C@@H](Cc2ccc(-c3ccccc3)cc2)NC(=O)[C@H](Cc2cccs2)N1 [Compound 483] | < 4.00 | –
O=C1CCC(=O)N[C@H](Cc2cccs2)C(=O)N[C@@H](Cc2ccc(-c3ccccc3)cc2)C(=O)N[C@H](c2ccccc2)C(=O)N[C@H](C(=O)O)Cc2ccc(cc2)N1 [Compound 76] ([d2Thi][Bip][dPhg][Phe(4-NH2)]-OH; linker N-4 via Suc) | 4.52 to 5.00 | –
O=C1COc2ccc(cc2)C[C@@H](C(=O)N[C@@H](CO)C(=O)O)NC(=O)[C@H](CCc2ccccc2)NC(=O)[C@@H](Cc2ccc(-c3ccccc3)cc2)NC(=O)[C@H](Cc2ccncc2)N1 [Compound 556] | – | > 5.00
O=C1CCC(=O)N[C@H](Cc2cccs2)C(=O)N[C@@H](CCc2ccccc2)C(=O)N[C@H](Cc2ccccc2)C(=O)N[C@H](C(=O)O)Cc2ccc(cc2)N1 [Compound 91] ([d2Thi][hPhe][dF][Phe(4-NH2)]-OH; linker N-4 via Suc) | < 4.00 | –
O=C1CCC(=O)N[C@H](CCc2ccccc2)C(=O)N[C@@H](Cc2ccc(-c3ccccc3)cc2)C(=O)N[C@H](Cc2ccccc2)C(=O)N[C@H](C(=O)O)Cc2ccc(cn2)N1 [Compound 546] | > 5.00 | –
O=C1CN(Cc2ccccc2)C(=O)[C@@H](Cc2ccc(-c3ccccc3)cc2)NC(=O)[C@H](Cc2cccs2)NC(=O)COc2ccc(cc2)C[C@@H](C(=O)O)N1 [Compound 253] | < 4.00 | –
O=C(O)CCNC(=O)[C@@H]1Cc2ccc(cc2)OCC(=O)N[C@@H](Cc2cccs2)C(=O)N[C@H](Cc2ccc(-c3ccccc3)cc2)C(=O)N[C@@H](CCc2ccccc2)C(=O)N1 [Compound 475] | > 5.00 | –
NCCCC[C@H](NC(=O)[C@@H]1Cc2ccc(cc2)NC(=O)CCC(=O)N[C@H](CCc2ccccc2)C(=O)N[C@@H](Cc2ccc(-c3ccccc3)cc2)C(=O)N[C@H](Cc2ccccc2)C(=O)N1)C(=O)O [Compound 295] ([d(hPhe)][Bip][dF][Phe(4-NH2)]K-OH; linker N-4 via Suc) | 4.52 to 5.00 | –
O=C1N[C@H](Cc2ccccc2)C(=O)N[C@@H](C(=O)O)Cc2ccc(cc2)NC(=O)[C@H](O)[C@@H](O)C(=O)N[C@H](Cc2cccs2)C(=O)N[C@H]1Cc1ccc(-c2ccccc2)cc1 [Compound 184] | < 4.00 | –
O=C1CCC(=O)N[C@H](Cc2cccs2)C(=O)N[C@@H](Cc2ccc([N+](=O)[O-])cc2)C(=O)N[C@H](Cc2ccccc2)C(=O)N[C@H](C(=O)O)Cc2ccc(cc2)N1 [Compound 106] ([d2Thi][Phe(4-NO2)][dF][Phe(4-NH2)]-OH; linker N-4 via Suc) | < 4.00 | –

Reference: patent US8338565B2, “Macrocyclic compounds for inhibition of tumor necrosis factor alpha” (Ensemble Therapeutics Corporation, priority 2008, dated 2012)
